# From patent US20110039847A1, “AMIDE DERIVATIVES AS SIRTUIN MODULATORS” (Sirtris Pharmaceuticals, Inc, priority 2007, published 2011)
# Biological target: T1, SIRT1 (Homo sapiens, UniProt Q96EB6)
# T1 sequence (Q96EB6 1-747): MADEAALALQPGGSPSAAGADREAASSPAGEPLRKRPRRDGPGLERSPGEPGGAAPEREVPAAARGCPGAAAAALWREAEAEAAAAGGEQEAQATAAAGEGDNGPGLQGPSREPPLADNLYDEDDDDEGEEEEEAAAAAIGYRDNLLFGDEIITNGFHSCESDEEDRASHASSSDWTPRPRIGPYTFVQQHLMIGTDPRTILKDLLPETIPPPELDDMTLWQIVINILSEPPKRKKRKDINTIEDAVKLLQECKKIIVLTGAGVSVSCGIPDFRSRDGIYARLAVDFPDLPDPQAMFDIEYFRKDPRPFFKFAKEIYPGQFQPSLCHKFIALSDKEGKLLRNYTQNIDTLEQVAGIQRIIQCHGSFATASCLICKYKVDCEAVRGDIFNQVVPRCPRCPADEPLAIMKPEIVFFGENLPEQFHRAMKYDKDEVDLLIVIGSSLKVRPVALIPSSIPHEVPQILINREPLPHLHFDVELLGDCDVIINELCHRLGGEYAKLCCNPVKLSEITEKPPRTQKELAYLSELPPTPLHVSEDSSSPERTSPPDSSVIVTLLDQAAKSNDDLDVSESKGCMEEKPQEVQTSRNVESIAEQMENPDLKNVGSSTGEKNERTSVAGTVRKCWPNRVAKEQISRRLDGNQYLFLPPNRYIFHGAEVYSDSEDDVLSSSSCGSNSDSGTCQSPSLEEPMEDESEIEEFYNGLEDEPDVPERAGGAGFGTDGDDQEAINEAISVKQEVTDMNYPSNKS
# Assay: Mass spectrometry based SIRT1 deacetylation (activation) assay
# Format: biochemical
# Conditions: 0.5 μM peptide substrate, 120 μM βNAD+, 10 nM SIRT1, 25 min at 25° C.; for Emax: 25 min, read-out: % Fold Act. (percent maximum fold activation)
EC1.5,Emax,Compound
A (EC1.5≦1 uM),≥ 300%,"CCN(CCN(C)C)c1cc(C(=O)Nc2ccccc2C(=O)NC2CCNC2)nc(-c2ccccc2)n1 (centres unmarked) [Compound 175, 6-((2-(dimethylamino)ethyl)(ethyl)amino)-2-phenyl-N-(2-(pyrrolidin-3-ylcarbamoyl)phenyl)pyrimidine-4-carboxamide]"
A (EC1.5≦1 uM),150 to 300%,O=C(Nc1ccccc1C(=O)c1nccs1)c1cc(N2CCOCC2)nc(-c2ccccc2)n1 [Compound 176]
A (EC1.5≦1 uM),≥ 300%,CCN(CCN(C)C)c1cc(C(=O)Nc2ccccc2C(=O)c2nccs2)nc(-c2ccccc2)n1 [Compound 177]
C (EC1.5>10 uM),150 to 300%,CN(C)CCN(C)c1cc(C(=O)Nc2ccccc2-c2nnc(-c3ccccc3)s2)nc(-c2ccccc2)n1 [Compound 179]
